Data: US12263248B2, “Compounds and compositions for intracellular delivery of therapeutic agents” (ModernaTX, Inc., priority 2018, dated 2025)

Key:
[1] = Lipid clearance: lipid level in mouse liver tissue (LC-MS/MS); type: in vivo; settings: for % Dose Remaining in Liver 6 h: Table 3D, intravenous; for % Remaining dose at 6 h / % Remaining dose at 24 h: Table 3E, mouse liver
Protocol: Quantification of Lipid by LC-MS/MS: Liver samples were homogenized following addition of 19 eq. (w/v) of water (DF=20). Protein was precipitated and analyzed against calibration standards prepared in matching blank. Chromatographic separation and quantification was accomplished with a LC-MS/MS System. Samples were injected and separated via HPLC A triple-quadrupole MS/MS system operated in positive ion mode was used for signal detection.

[2] = Apparent (surface) pKa of the LNP formulation (TNS assay); type: physicochemical; settings: Table 1A
Outline: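 LNP (0.04 mg/mL mRNA) mixed with TNS reagent in 21 buffers spanning about pH 3-12, in triplicate; fluorescence plotted against pH as sigmoidal curve. Apparent pKa taken as […] curve inflection point; validated in 1× PBS and 20 mM Tris w/8% sucrose.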

luciferase (Luc) mRNA [3] = test: Luc expression in liver, lung, spleen and femur 6 hours after intravenous administration; type: in vivo; settings: mice, 0.5 mpk
Outline: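 LNP-formulated mRNA given IV to mice (n=3) at 0.5 mpk; at 6 h, bioluminescence imaged ex vivo 15 min after IP D-luciferin (15 mg/mL, 200 μL), organs imaged within 25 min. Values are total flux by region of interest.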

luciferase (Luc) mRNA [4] = test: Luc expression, whole body bioluminescence after intravenous administration to mice; type: in vivo; settings: for 6 h BLI Lipid/MC3: Table 3E
Outline: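 Luc mRNA nanoparticle formulations given intravenously to mice (n=6) at 0.5 mg/kg; whole-body bioluminescence imaged at 3, 6 and 24 h. CD-1 mice received IP D-luciferin (200 μL of 15 mg/mL) 15 min before imaging; total flux quantified by region of interest.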

[5] = Particle size and polydispersity index of nanoparticle compositions (Zetasizer Nano ZS); type: physicochemical
Outline: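 Particle size and PDI were measured on a Zetasizer Nano ZS with the nanoparticle compositions dispersed in 1×PBS.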

[6] = Encapsulation efficiency of RNA (QUANT-IT RIBOGREEN RNA assay); type: physicochemical
Outline: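 RiboGreen fluorescence (ex ~480, em ~520 nm) compared between intact samples and Triton X-100-lysed samples after 15 min at 37 °C in TE buffer, pH 7.5. Percent free RNA is the blank-corrected intact/disrupted ratio.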

hEPO mRNA = test: hEPO expression after intravenous administration to rats; type: in vivo, rat; settings: Table 19B
Protocol: The expression of hEPO and cytokine induction in rats intravenously administered a nanoparticle composition at a dose of 2.0 mpk was measured at 6 h.
(§1) The expression of hEPO in rats intravenously administered a nanoparticle composition at a dose of 0.2 mpk or 2.0 mpk was measured at 6 hours. Table 16 summarize the ratio of hEPO expression levels using various nanoparticle compositions as compared to the hEPO expression level using MC3 formulation and the lipid levels in the liver measured 48 hours after administration, as described above. Tables 17 and 18 summarize the lipid levels in the liver and spleen measured 48 hours after administration of Compounds 28, 33, 53, and 54. Liver and spleen levels represent the average values calculated for 3 rats in each group. As is shown in Tables 17 and 18, less than 10% of Compounds 28, 33, 53, and 54 remained in the liver after 48 hours, while greater than 60% of MC3 remained.
The expression of hEPO induced by intravenous administration to rats of nanoparticle compositions at various doses was measured at 2, 4, 6, 8, 24, and 48 hour time points. FIGS. 3-6 respectively summarize the hEPO expression measured upon intravenous administration of formulations including Compounds 26, 18, 25, and MC3 to rat at various doses. The lipid levels of Compound 26 in the liver after 48 hours were about 19%.
(§2) 005781 The expression of hEPO and lipid levels in the liver and spleen in rats intravenously administered a nanoparticle composition at a dose of 0.2 mpk was measured at various time points. Compounds 18 and 25 were selected for comparison with MC3. Lipids were formulated according to the standard MC3 formulation described above. Rats were administered intravenously a single 0.2 mpk dose and expression monitored at 0.25, 0.5, 1, 2, 4, 8, 24, and 48 hours after administration.
Blood collection and analysis for hEPO. Blood was collected from mice or rats via the tail vein and hEPO concentrations were determined using a hEPO ELISA assay.

[7] = Residual lipid levels in rat liver and spleen (UPLC-MS); type: in vivo; settings: Table 19B, liver, 24 h
Protocol: At 48 h liver tissue was harvested for lipid quantification. To pre-weighed tissues, Milli-Q water was added (900 μL water per 100 mg tissue). Tissues were homogenized using an Omni probe homogenizer until uniform. 50 μL of samples and matrix calibration standards were aliquoted into a 96-well plate. 50 μL of blank matrix for matrix blanks and control blanks were aliquoted. 400 μL is spiking solution were manually added to all samples except matrix blanks. 400 μL of 50:50 ACN:IPA were manually added to matrix blanks. The plate was covered and the samples vortexed and centrifuged for 5 minutes at >3000 rpm. 200 μL of the samples were transferred into a clean 96-well plate for analysis. Samples were analyzed on a Waters Acquity UPLC using a Higgins Analytical Clipeus C8 column ([…], 30×2.1 mm) and a gradient of either 70-95% or 60-95% (Mobile Phase A: 5 mM ammonium formate in 50:50:1 H2O:MeOH:formic acid; Mobile Phase B: 5 mM ammonium formate in 100:1 MeOH:formic acid) over 1.3 min at 1.2 mL/min (column temperature 55° C.). Detection was based on electrospray ionization (ESI) in positive mode using a Sciex API5500 Mass Spectrometer.
as §1, §2

[8] = Table 1A, lipid:DSPC:cholesterol:PEG-DMG 50:10:38.5:1.5 mol %
[9] = Table 1B, formulated with hEPO mRNA

Compound	pKa [2]	PDI ([5]; Table 1A)	Size (nm) [5, 8] [nm]	EE (%) ([6]; Table 1A)	% Remaining dose at 6 h [1] [%]	% Remaining dose at 24 h [1] [%]	6 h BLI Lipid/MC3 (luciferase (Luc) mRNA [4]; intravenous)	other results
CCCCCCCCC(CCCCCCCC)OC(=O)CCCCCCCN(CCO)CCCCCCCC(=O)OCC(CCCCCCC)OC (stereo not drawn) [Compound 148, Heptadecan-9-yl 8-((2-hydroxyethyl)(8-((2-methoxynonyl)oxy)-8-oxooctyl)amino)octanoate]	6.646	0.200	192.7	25.49				% Dose Remaining in Liver 6 h ([1]; second column (head also says 6 h)): <1%; % Dose Remaining in Liver 6 h [1]: <1%; Flux in the spleen (luciferase (Luc) mRNA [3]; i.v., in words): highest; Total Flux Liver (luciferase (Luc) mRNA [3]; intravenous, liver): 4.39E+09; Total Flux Lung (luciferase (Luc) mRNA [3]; intravenous, lung): 3.27E+07; Total Flux Spleen (luciferase (Luc) mRNA [3]; intravenous, spleen): 2.71E+09; Lipid/MC3 AUC (luciferase (Luc) mRNA [4]; Table 3D, intravenous): 2.6; AUC (p/s * h) (luciferase (Luc) mRNA [4]; Table 3D, intravenous, Luc): 4.965E+011 p/s * h; Total Flux 3 hours (luciferase (Luc) mRNA [4]; mice, i.v., 0.5 mg/kg, Luc mRNA, 3 hours): 6.28E+10; Total Flux 6 hours (luciferase (Luc) mRNA [4]; mice, i.v., 0.5 mg/kg, Luc mRNA, 6 hours): 3.71E+10; Total Flux 24 hours (luciferase (Luc) mRNA [4]; mice, i.v., 0.5 mg/kg, Luc mRNA, 24 hours): 1.43E+09
CCCCCCCCCOC(=O)CCCCCCCNCCCCCCCC(=O)OC(CCCCCCCC)CCCCCCCC [Compound 237]								AUC (hEPO) (hEPO mRNA): 4.09e+07 pg·h/mL; [hEPO] (hEPO mRNA; species, dose and time not given): 3.47e+06 pg/mL; PDI [5, 9]: 0.15; Size (nm) [5, 9]: 82.5 nm; % dose remaining, liver, 24 h [7]: 0.14%; EE (%) [6, 9]: 99.3%
CCCCCCCCCOC(=O)CCCCCCCN(CCO)CCCCCCCC(=O)OC(CCC1CC1CCCC)CCC1CC1CCCC (stereo not drawn) [Compound 160, 1,5-Bis(2-butylcyclopropyl)pentan-3-yl 8-((2-hydroxyethyl)(8-(nonyloxy)-8-oxooctyl)amino)octanoate]	6.54	0.15	89.0	94.0	0.056	0	0.29	
CCCCCCCCC(CCCCCCCC)OC(=O)CCCCCCCN(CCO)CCCCCCCC(=O)O[C@H](C)CCCCCCCC [Compound 172, (R)-Decan-2-yl 8-((8-(heptadecan-9-yloxy)-8-oxooctyl)(2-hydroxyethyl)amino)octanoate]	6.40	0.13	77.3	95.4	17.4	3.24	1.72	
CCCCCCCCCCCOC(=O)CCCCCN(CCO)CCCCCC(=O)OC(CCCCCCCCCC)CCCCCCCCCC [Compound 185, Henicosan-11-yl 6-((2-hydroxyethyl)(6-oxo-6-(undecyloxy)hexyl)amino)hexanoate]	6.77	0.14	69.6	98.3	33.8	29.3	0.87	
